Test results taken from ChEMBL document CHEMBL1201862, “PubChem BioAssay data set” (2004).
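48-hour exposure; five concentrations; linearly interpolated endpoints. GI50 = concentration required for 50% inhibition of growth.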 Active and inactive are the calls of the source. Cut-off read from the data, not from the text of the source: active = GI50 up to about 1.1 µM and inactive = higher.

Columns and labels:
Assay in all cases: DTP human tumour cell line panel, 48 h
EKVX = tested on: EKVX
MDA-N = tested on: MDA-N
NCI-H522 = tested on: NCI-H522
HL-60 = tested on: HL-60
A549 = tested on: A549
UACC-62 = tested on: UACC-62
SNB-19 = tested on: SNB-19
U-251 = tested on: U-251
IGROV-1 = tested on: IGROV-1
SK-MEL-5 = tested on: SK-MEL-5
SF-295 = tested on: SF-295
786-0 = tested on: 786-0
OVCAR-5 = tested on: OVCAR-5
MDA-MB-435 = tested on: MDA-MB-435
ACHN = tested on: ACHN
UO-31 = tested on: UO-31
NCI-H460 = tested on: NCI-H460
SF-539 = tested on: SF-539
NCI-H23 = tested on: NCI-H23
CCRF-CEM = tested on: CCRF-CEM

Compound | GI50 (EKVX) | GI50 (MDA-N) | GI50 (NCI-H522) | GI50 (HL-60) | GI50 (A549) | GI50 (UACC-62) | GI50 (SNB-19) | GI50 (U-251) | GI50 (IGROV-1) | GI50 (SK-MEL-5) | GI50 (SF-295) | GI50 (786-0) | GI50 (OVCAR-5) | GI50 (MDA-MB-435) | GI50 (ACHN) | GI50 (UO-31) | GI50 (NCI-H460) | GI50 (SF-539) | GI50 (NCI-H23) | GI50 (CCRF-CEM)
O=C1N[C@@H](COc2ccc(/C=N/c3ccc(CCc4ccc(/N=C/c5ccc(OC[C@@H]6COC(=O)N6)cc5)cc4)cc3)cc2)CO1 | > 100 µM (inactive) | > 100 µM (inactive) | > 100 µM (inactive) | > 100 µM (inactive) | > 100 µM (inactive) | > 100 µM (inactive) | > 100 µM (inactive) | > 100 µM (inactive) | > 100 µM (inactive) | > 100 µM (inactive) | > 100 µM (inactive) | > 100 µM (inactive) | > 100 µM (inactive) | > 100 µM (inactive) | > 100 µM (inactive) | > 100 µM (inactive) | – | – | – | –
Nc1nc(S)c2c(N)n[nH]c2c1C(=O)Nc1ccccc1 | 26.5 µM (inactive) | 50.2 µM (inactive) | > 100 µM (inactive) | > 100 µM (inactive) | > 100 µM (inactive) | > 100 µM (inactive) | > 100 µM (inactive) | > 100 µM (inactive) | > 100 µM (inactive) | > 100 µM (inactive) | – | > 100 µM (inactive) | > 100 µM (inactive) | 42 µM (inactive) | – | > 100 µM (inactive) | > 100 µM (inactive) | > 100 µM (inactive) | > 100 µM (inactive) | –
COC(=O)C12OC(C)(C(CC(=O)OC(C)(C)C)C1=O)C1C(=O)N(c3ccccc3)C(=O)C12 (stereo not given) | – | > 100 µM (inactive) | > 100 µM (inactive) | – | > 100 µM (inactive) | > 100 µM (inactive) | > 100 µM (inactive) | > 100 µM (inactive) | > 100 µM (inactive) | > 100 µM (inactive) | > 100 µM (inactive) | > 100 µM (inactive) | > 100 µM (inactive) | > 100 µM (inactive) | > 100 µM (inactive) | > 100 µM (inactive) | > 100 µM (inactive) | – | > 100 µM (inactive) | > 100 µM (inactive)
C[N+](C)(C)C1=NNC2=Nc3ccccc3SC2=C1 | 4.92 µM (inactive) | 17.8 µM (inactive) | 15.9 µM (inactive) | 54.1 µM (inactive) | 23.9 µM (inactive) | 17 µM (inactive) | 26.5 µM (inactive) | 18.6 µM (inactive) | 17 µM (inactive) | 15.1 µM (inactive) | 9.42 µM (inactive) | 20.1 µM (inactive) | 17.7 µM (inactive) | 22.2 µM (inactive) | 16 µM (inactive) | 15 µM (inactive) | 19 µM (inactive) | – | 28.9 µM (inactive) | 11.7 µM (inactive)
C[N+]12C=CC=C1C(N1CCCC1)c1scc(-c3ccc(Br)cc3)c12 (stereo not given) | 20.1 µM (inactive) | 27 µM (inactive) | 1.64 µM (inactive) | – | 74.1 µM (inactive) | 19.2 µM (inactive) | 4.22 µM (inactive) | 2.09 µM (inactive) | 4.58 µM (inactive) | 4.68 µM (inactive) | 6.4 µM (inactive) | 16.7 µM (inactive) | 42.1 µM (inactive) | 24 µM (inactive) | > 88.9 µM (inactive) | > 100 µM (inactive) | 14.6 µM (inactive) | 4 µM (inactive) | 3.49 µM (inactive) | 18.2 µM (inactive)
CC1CC(=O)NC2CC1C2(C)C (stereo not given) | – | > 100 µM (inactive) | > 100 µM (inactive) | > 100 µM (inactive) | > 100 µM (inactive) | > 100 µM (inactive) | > 100 µM (inactive) | > 100 µM (inactive) | > 100 µM (inactive) | > 100 µM (inactive) | > 100 µM (inactive) | > 100 µM (inactive) | > 100 µM (inactive) | > 100 µM (inactive) | > 100 µM (inactive) | > 100 µM (inactive) | > 100 µM (inactive) | – | > 100 µM (inactive) | > 100 µM (inactive)
CC[n+]1[b-](C(C)(C)C)n(/N=C(\C)C(C)(C)C)[b-](C(C)(C)C)[n+]1CC | > 100 µM (inactive) | > 10 µM (inactive) | > 100 µM (inactive) | – | > 100 µM (inactive) | > 100 µM (inactive) | > 100 µM (inactive) | > 100 µM (inactive) | > 100 µM (inactive) | > 100 µM (inactive) | > 100 µM (inactive) | > 100 µM (inactive) | > 100 µM (inactive) | > 100 µM (inactive) | > 100 µM (inactive) | > 100 µM (inactive) | > 100 µM (inactive) | > 100 µM (inactive) | > 100 µM (inactive) | > 100 µM (inactive)
NC(Cc1cc(I)c(Oc2ccc(O)c(I)c2)c(I)c1)C(=O)O (stereo not given) [RATHYRONINE] | > 100 µM (inactive) | > 100 µM (inactive) | 36.1 µM (inactive) | – | > 100 µM (inactive) | 64.4 µM (inactive) | 80.9 µM (inactive) | 43.4 µM (inactive) | 73.1 µM (inactive) | 37.6 µM (inactive) | > 100 µM (inactive) | > 100 µM (inactive) | > 100 µM (inactive) | > 100 µM (inactive) | > 100 µM (inactive) | > 100 µM (inactive) | – | – | > 100 µM (inactive) | –
CCC1(CC)C(=O)N(C(=O)c2ccc(C)cc2)N(C(=O)c2ccc(C)cc2)C1=O | 48.6 µM (inactive) | 63.2 µM (inactive) | 16.8 µM (inactive) | 28.4 µM (inactive) | > 75 µM (inactive) | > 75 µM (inactive) | > 75 µM (inactive) | 35 µM (inactive) | 48.9 µM (inactive) | > 75 µM (inactive) | 72.9 µM (inactive) | > 75 µM (inactive) | > 75 µM (inactive) | > 75 µM (inactive) | 26.8 µM (inactive) | > 75 µM (inactive) | 18.3 µM (inactive) | – | 27.2 µM (inactive) | 33.1 µM (inactive)
Cc1csc2[n+]1C(=O)/C(=C\c1ccc([N+](=O)[O-])cc1)S2 | – | 27.8 µM (inactive) | – | 26.2 µM (inactive) | 27.4 µM (inactive) | 19.2 µM (inactive) | 25.4 µM (inactive) | 18.7 µM (inactive) | – | 26.2 µM (inactive) | 23.9 µM (inactive) | 24.2 µM (inactive) | 47.2 µM (inactive) | 24.9 µM (inactive) | 25.4 µM (inactive) | 15.3 µM (inactive) | 22.9 µM (inactive) | 36.1 µM (inactive) | 18.7 µM (inactive) | 43.1 µM (inactive)
c1ccc2c(c1)[nH]c1nc3cc(-c4ccc5nc6c(nc5c4)[nH]c4ccccc46)ccc3nc12 | > 90.4 µM (inactive) | > 100 µM (inactive) | 5.42 µM (inactive) | 20.9 µM (inactive) | > 100 µM (inactive) | > 72.9 µM (inactive) | > 100 µM (inactive) | 69.3 µM (inactive) | > 100 µM (inactive) | 54.1 µM (inactive) | > 100 µM (inactive) | > 100 µM (inactive) | > 100 µM (inactive) | > 100 µM (inactive) | > 52.8 µM (inactive) | > 100 µM (inactive) | > 33.5 µM (inactive) | – | > 59 µM (inactive) | 12.9 µM (inactive)
Nc1ccc(Oc2ccc(C34CC5C6CC7(c8ccc(Oc9ccc(N)cc9)cc8)CC5C(C3)C(C7)C6C4)cc2)cc1 | > 100 µM (inactive) | > 100 µM (inactive) | > 100 µM (inactive) | > 100 µM (inactive) | > 100 µM (inactive) | > 100 µM (inactive) | > 100 µM (inactive) | > 100 µM (inactive) | > 100 µM (inactive) | > 100 µM (inactive) | > 100 µM (inactive) | > 100 µM (inactive) | > 100 µM (inactive) | > 100 µM (inactive) | > 100 µM (inactive) | > 100 µM (inactive) | > 100 µM (inactive) | – | > 100 µM (inactive) | > 100 µM (inactive)
CON(C)C(=O)C(C)NC(=O)OCc1ccccc1 (stereo not given) | > 100 µM (inactive) | > 100 µM (inactive) | – | > 100 µM (inactive) | > 100 µM (inactive) | > 100 µM (inactive) | > 100 µM (inactive) | > 100 µM (inactive) | > 100 µM (inactive) | > 100 µM (inactive) | > 100 µM (inactive) | > 100 µM (inactive) | > 100 µM (inactive) | > 100 µM (inactive) | > 100 µM (inactive) | > 100 µM (inactive) | > 100 µM (inactive) | > 100 µM (inactive) | > 100 µM (inactive) | > 100 µM (inactive)
COC(=O)NC1(NC(=O)OC)NC(=O)c2cc(OC)c(OC)c(OC)c2N1 | > 100 µM (inactive) | 3.15 µM (inactive) | 6.98 µM (inactive) | 8.15 µM (inactive) | < 0.01 µM (active) | 30.1 µM (inactive) | 44.9 µM (inactive) | < 0.01 µM (active) | 53.1 µM (inactive) | 11 µM (inactive) | 12.4 µM (inactive) | 39 µM (inactive) | > 100 µM (inactive) | – | 86.5 µM (inactive) | 46.2 µM (inactive) | 17.2 µM (inactive) | 23.6 µM (inactive) | 32.7 µM (inactive) | 82 µM (inactive)
COC(=O)c1cn(CCCCO)nn1 | > 100 µM (inactive) | > 100 µM (inactive) | – | – | > 100 µM (inactive) | > 100 µM (inactive) | > 100 µM (inactive) | > 100 µM (inactive) | > 100 µM (inactive) | > 100 µM (inactive) | > 100 µM (inactive) | > 100 µM (inactive) | – | > 100 µM (inactive) | > 100 µM (inactive) | > 100 µM (inactive) | > 100 µM (inactive) | > 100 µM (inactive) | > 100 µM (inactive) | > 100 µM (inactive)
